Activity calls are given as the source filed them.
Columns and labels:
[1] = Luminescence Cell-Based Dose Confirmation HTS to Identify Inhibitors of Polyadenylation.; format: functional
[2] = A cytotoxicity screen of small molecule inhibitors of the PhoP region in Salmonella typhi identified in the primary screen. [Related pubchem assays: 1850, 1864, 1985 ]; format: functional
[3] = molecular target: T1, Mannose-6-phosphate isomerase (Homo sapiens, UniProt P34949); test: inhibitors of human PMI, primary screen, biochemical, fluorescence intensity, coupled assay (AID 1209)
T1 sequence (P34949 whole entry): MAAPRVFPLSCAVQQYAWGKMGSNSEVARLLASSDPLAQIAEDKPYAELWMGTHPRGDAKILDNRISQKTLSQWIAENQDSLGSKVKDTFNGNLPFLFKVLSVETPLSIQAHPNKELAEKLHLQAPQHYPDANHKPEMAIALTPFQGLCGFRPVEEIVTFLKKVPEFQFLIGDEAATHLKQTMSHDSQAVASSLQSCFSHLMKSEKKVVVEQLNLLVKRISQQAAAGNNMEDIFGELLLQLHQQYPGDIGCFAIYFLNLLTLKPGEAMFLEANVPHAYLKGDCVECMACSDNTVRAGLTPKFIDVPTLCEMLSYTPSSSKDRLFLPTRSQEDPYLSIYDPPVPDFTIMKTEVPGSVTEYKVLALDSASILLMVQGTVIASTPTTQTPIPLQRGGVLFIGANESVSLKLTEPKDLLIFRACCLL

[4] = HEp-2 cell cytotoxicity, dose response, cytotoxicity control for RSV inhibitor project, HTS (AID 2410); format: functional; settings: human respiratory syncytial virus
Streptococcus = test: Group A Streptococcus viability loss, dose response, counter-screen for streptokinase expression inhibitor project, luminescence, BacTiterGlo (AID 1915); format: functional, organism-based;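 also: potency for reduction of bacterial viability or growth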
[5] = M. tuberculosis H37Rv growth inhibitors, H37Rv strain (AID 1626); format: functional
Streptokinase A = molecular target: T2, Streptokinase A (Streptococcus pyogenes serotype M1, UniProt P10520); test: S. pyogenes streptokinase expression inhibitors, potency, dose response, plasminogen activation absorbance, OD405 (AID 1914); format: functional, Streptococcus pyogenes M1 GAS;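 also: secreted streptokinase activity via plasminogen activation per viability signal from cell pellet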
T2 sequence (P10520 whole entry): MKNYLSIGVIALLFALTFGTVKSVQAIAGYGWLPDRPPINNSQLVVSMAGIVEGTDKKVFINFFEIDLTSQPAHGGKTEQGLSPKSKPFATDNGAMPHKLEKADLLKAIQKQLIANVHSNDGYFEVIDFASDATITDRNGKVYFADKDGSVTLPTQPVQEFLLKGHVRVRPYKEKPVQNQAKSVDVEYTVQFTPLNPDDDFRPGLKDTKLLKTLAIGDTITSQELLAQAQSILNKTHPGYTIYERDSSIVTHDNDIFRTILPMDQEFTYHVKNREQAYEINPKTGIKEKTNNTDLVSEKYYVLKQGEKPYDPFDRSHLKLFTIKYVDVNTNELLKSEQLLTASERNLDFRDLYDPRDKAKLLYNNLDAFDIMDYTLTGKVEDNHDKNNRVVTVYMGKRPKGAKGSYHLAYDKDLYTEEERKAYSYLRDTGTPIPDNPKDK

[6] = test system: Streptococcus sp. 'group A'; test: growth inhibition of control SK(-) GAS strain, dose response, counter-screen for streptokinase expression inhibitor project, luminescence, kanamycin, BacTiterGlo, confirmation (AID 1900); format: functional, organism-based
[7] = molecular target: T3, Carboxy-terminal domain RNA polymerase II polypeptide A small phosphatase 1 (Homo sapiens, UniProt Q9GZU7); test: inhibitors of CTDSP1, concentration-response testing, biochemical assay, absorbance-based, actives from ultra-high-throughput screening (AID 540297); format: functional
T3 sequence (Q9GZU7 whole entry): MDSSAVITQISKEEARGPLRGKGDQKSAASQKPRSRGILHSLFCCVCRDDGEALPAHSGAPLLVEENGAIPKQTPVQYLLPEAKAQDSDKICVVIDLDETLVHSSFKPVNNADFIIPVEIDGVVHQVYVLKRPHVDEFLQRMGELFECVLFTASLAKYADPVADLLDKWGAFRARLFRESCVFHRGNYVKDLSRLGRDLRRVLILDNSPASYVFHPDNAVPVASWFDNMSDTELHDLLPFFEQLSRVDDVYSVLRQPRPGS

NS3 = NS3 (Hepatitis C virus, UniProt A3EZJ3); test: PubChem AID 2173; parameters: species or system Hepacivirus hominis
Sequence of NS3 (A3EZJ3 whole entry): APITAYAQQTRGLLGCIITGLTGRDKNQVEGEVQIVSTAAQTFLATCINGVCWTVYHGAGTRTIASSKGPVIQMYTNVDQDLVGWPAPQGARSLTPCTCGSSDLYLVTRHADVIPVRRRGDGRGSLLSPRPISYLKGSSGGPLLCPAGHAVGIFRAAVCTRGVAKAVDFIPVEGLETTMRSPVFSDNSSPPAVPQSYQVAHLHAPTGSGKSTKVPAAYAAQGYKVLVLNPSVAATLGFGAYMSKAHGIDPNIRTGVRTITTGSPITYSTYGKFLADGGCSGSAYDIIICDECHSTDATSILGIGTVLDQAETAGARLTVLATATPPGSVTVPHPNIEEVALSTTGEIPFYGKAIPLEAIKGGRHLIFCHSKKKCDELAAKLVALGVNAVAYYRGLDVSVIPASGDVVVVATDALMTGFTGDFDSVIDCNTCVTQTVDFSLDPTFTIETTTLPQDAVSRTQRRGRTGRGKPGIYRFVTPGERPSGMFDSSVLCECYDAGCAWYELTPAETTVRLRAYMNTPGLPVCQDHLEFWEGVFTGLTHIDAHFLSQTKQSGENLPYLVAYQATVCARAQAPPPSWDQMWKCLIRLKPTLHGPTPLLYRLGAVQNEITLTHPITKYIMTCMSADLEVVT

[8] = Luminescence Cell-Based Dose Retest to Confirm Inhibitors of Cancer Stem Cells. [Related pubchem assays (depositor defined):AID2717, AID2721]; format: functional; settings: Homo sapiens
Estrogen receptor = molecular target: T4, Estrogen receptor (Homo sapiens, UniProt P03372);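 also: potency for inhibiting coactivator peptide recruitment to the receptor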
T4 sequence (P03372 whole entry): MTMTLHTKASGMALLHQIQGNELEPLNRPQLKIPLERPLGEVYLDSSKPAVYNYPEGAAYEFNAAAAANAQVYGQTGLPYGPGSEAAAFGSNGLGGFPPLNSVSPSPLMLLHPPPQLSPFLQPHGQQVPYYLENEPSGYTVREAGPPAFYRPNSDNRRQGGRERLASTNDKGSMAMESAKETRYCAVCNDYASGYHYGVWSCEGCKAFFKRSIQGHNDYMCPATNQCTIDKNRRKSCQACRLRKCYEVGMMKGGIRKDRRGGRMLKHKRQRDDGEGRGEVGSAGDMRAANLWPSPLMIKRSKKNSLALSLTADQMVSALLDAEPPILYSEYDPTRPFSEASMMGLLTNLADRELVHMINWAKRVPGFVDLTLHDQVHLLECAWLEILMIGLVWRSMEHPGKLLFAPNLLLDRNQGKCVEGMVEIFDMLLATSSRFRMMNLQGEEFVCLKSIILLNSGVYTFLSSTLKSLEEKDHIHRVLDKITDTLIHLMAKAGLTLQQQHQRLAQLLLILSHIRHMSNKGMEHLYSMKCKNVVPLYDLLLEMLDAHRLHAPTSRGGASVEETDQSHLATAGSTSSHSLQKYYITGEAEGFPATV

[9] = growth suppression of PTEN-null colon cells, dose response, cell-based, HCT116 PTEN knockout (AID 1047); format: functional;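 also: HCT116 colon tumor cells with PTEN knocked out; cells exposed to compound for 60 hours before readout; potency for loss of cell viability measured by luminescence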
[10] = inhibitors of intracellular T. cruzi replication, confirmation, NIH3T3 host cells, beta-gal luminescence (AID 2044); format: functional, cell-based;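 also: intracellular parasites grown in NIH/3T3 mouse fibroblasts as host cells; luminescent beta-galactosidase reporter signal from transgenic T. cruzi replicating inside host cells; inhibitors lower the luminescence signal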
[11] = cytotoxicity toward NIH3T3 fibroblasts, dose response, counter-screen, cell-based, ATP luminescence, mouse fibroblasts (AID 2010); format: functional;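 also: cells exposed to compound for about 90 hours before reading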
[12] = molecular target: Neurotensin receptor type 1 (Homo sapiens, UniProt P30989); format: functional;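 also: Image-based confirmatory dose-response assay measuring agonist activity at NTR1; NTR1-expressing U2OS osteosarcoma cells imaged for beta-arrestin GFP spot formation; agonist potency where compounds increase beta-arrestin recruitment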
Sequence of Neurotensin receptor type 1 (P30989 whole entry): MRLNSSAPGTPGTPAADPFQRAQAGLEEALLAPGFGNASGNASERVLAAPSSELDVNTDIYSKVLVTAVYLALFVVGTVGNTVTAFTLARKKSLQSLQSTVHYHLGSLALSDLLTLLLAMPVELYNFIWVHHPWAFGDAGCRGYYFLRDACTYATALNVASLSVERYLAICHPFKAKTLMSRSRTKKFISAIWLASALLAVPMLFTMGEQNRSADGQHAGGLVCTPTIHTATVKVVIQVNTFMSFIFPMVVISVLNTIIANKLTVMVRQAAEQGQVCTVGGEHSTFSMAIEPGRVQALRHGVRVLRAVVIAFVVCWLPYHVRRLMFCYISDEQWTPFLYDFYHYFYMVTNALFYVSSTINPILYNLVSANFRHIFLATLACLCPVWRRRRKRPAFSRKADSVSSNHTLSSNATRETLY

[13] = growth suppression of beta-catenin-knockout colon cells, dose response, cell-based, HCT116, human colon tumor (AID 1045); format: functional;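 also: HCT116 colon tumor cells with beta catenin knocked out; cells exposed to compound for 60 hours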
[14] = microbe, parasite or virus in culture; format: functional; settings: Mycobacterium tuberculosis
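For AC50 in this document: cells exposed to compound for roughly 70 hours or longer before luminescence read.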

For `COc1cc(C(=O)Nc2c(C)cc(C)cc2C)c(Br)c(OC)c1OC`, the EC50 [1] was > 120 µM (not active).
In the case of `CCN=C(S)Nc1cc(-c2ccc(Cl)cc2)[nH]n1`, the EC50 [2] is reported as > 50 µM (active) and the IC50 [3] is reported as > 50 µM (not active).
With `O=[N+]([O-])c1ccccc1S(=O)(=O)Nc1cccc(-c2ccc(N3CCOCC3)nn2)c1` the IC50 (cells) was 16.8 µM (active) and the CC50 [4] was > 50 µM (active).
For `COc1ccc(OCCn2c(NC(=O)c3ccco3)nc3ccccc32)cc1`, the EC50 (Streptococcus) was > 150 µM (not active), the IC50 [5] was > 100 µM (active) and the EC50 (Streptokinase A) was > 150 µM (not active). For the same compound, the EC50 [6] was 5.47 µM (active).
With `Cc1nc2ccc(NC(=O)C(F)(F)F)cc2o1` the IC50 [5] was > 100 µM (active).
For `CC[n+]1c(C)n(-c2ccccc2)c2ccc(NC(C)=O)cc21`, the IC50 [3] was > 50 µM (not active) and the IC50 [7] was 5.18 µM (active).
With `Cc1ccc(CCCOC(=O)C[N+]2(C)CCCC2)cc1` the IC50 [3] was > 50 µM (not active) and the IC50 [7] was 11 µM (active).
For `CC(C)C(C)(C#N)NC(=O)CSc1nc2scc(-c3ccco3)c2c(=O)n1-c1ccccc1` (stereo not given), the IC50 (NS3) was 11.3 µM (not active).
With `O=C1c2ccccc2C(=O)N1CCCCN(C(=O)c1cc2ccccc2oc1=O)c1ccc(Cl)cc1` the IC50 (cells) was 21.9 µM (active).
With `COC(=O)c1sc2nc(N3CCCCC3)c3c(c2c1N)CCCC3` the AC50 [8] was 2.95 µM (active), the IC50 (cells) was > 50 µM (active) and the CC50 [4] was > 50 µM (active).
In the case of `COc1cc(C(=O)OCC(=O)Nc2c(F)c(F)c(F)c(F)c2F)cc(OC)c1OC`, the IC50 (Estrogen receptor) is reported as > 50 µM (not active).
For `O=C(COC(=O)Cc1ccccc1F)Nc1ccc2c(c1)OCO2`, the IC50 [5] was > 100 µM (active).
With `CCCCCn1c(N2CCC(Cc3ccccc3)CC2)nc2c1c(=O)[nH]c(=O)n2C` the EC50 [9] was 11.9 µM (active), the EC50 [10] was 0.971 µM (active) and the EC50 [11] was > 60 µM (not active). The EC50 [12] was 9.08 µM (active) and the EC50 [13] was 12.7 µM (active).
In the case of `C/C(=N/Nc1cc(-c2ccccc2)nc(-c2ccccc2)n1)c1ccc(O)cc1`, the CC50 [14] is reported as 18.2 µM (active), the EC50 (Streptococcus) is reported as 1.56 µM (active) and the EC50 [12] is reported as 15.9 µM (active). The EC50 [6] was 1.52 µM (active).

Source: ChEMBL document CHEMBL1201862, “PubChem BioAssay data set” (2004)
